From patent US20110171683A1, “METHODS AND COMPOSITIONS FOR ENUMERATING ANTIBIOTIC-RESISTANT MICROORGANISMS” (priority 2008, published 2011)

System: methicillin-resistant Staphylococcus aureus strain 560
Test: Colony counts on PETRIFILM plates and blood agar plates containing cefoxitin or oxacillin
Assay type: cell-based
Details: conclusion in words from Tables 1 and 2
Procedure: PETRIFILM Aerobic Count Plates were obtained from 3M Company (St. Paul, Minn.). DIFCO dehydrated tryptic soy agar (TSA) was obtained from BD Diagnostics (Sparks, Md.). Defibrinated sheep blood was obtained from Remel, Inc. (Lenexa, Kans.).
Phosphate-buffered saline (PBS), pH 7.5, was prepared from a 10× concentrate (OmniPur 6505 buffered saline; EMD Chemicals, Inc.; Gibbstown, N.J.) and was sterilized by autoclaving. Antibiotic stock solutions were prepared in deionized water and were sterilized by passage through a 0.22 μm filter.
Sheep blood agar containing cefoxitin (SBA-Cf) was prepared to compare the recovery of antibiotic resistant microorganisms on agar media to the recovery of the antibiotic-resistant microorganisms in a thin-film culture device. Twenty grams of dehydrated TSA was mixed with 475 mL of deionized water and autoclaved. The molten agar was tempered at 50° C. Twenty-five milliliters of defibrinated sheep blood was added to the agar (to yield a final concentration of 5% sheep blood) and swirled to mix. Cefoxitin stock solution (0.5 mL of 4 mg/mL) was added to the agar and swirled to mix. […]
Bacterial strains were inoculated into tryptic soy broth and were incubated overnight at 37° C. […] All plates were incubated at 35° C. and the colonies on each plate were counted at 24±2 hours and 48±4 hours.

CO[C@@]1(NC(=O)Cc2cccs2)C(=O)N2C(C(=O)O)=C(COC(N)=O)CS[C@@H]21 [cefoxitin]
Sensitivity or resistance of strain 560 to the antibiotic: sensitive

Cc1onc(-c2ccccc2)c1C(=O)N[C@@H]1C(=O)N2[C@@H]1SC(C)(C)[C@@H]2C(=O)O [oxacillin]
Sensitivity or resistance of strain 560 to the antibiotic: resistant
